According to patent US20250289795A1, “METHOD FOR PREPARATION OF COMPOUND POSSESSING 5-PENTYLFURFURAL (5-PF) STRUCTURE AND USE THEREOF” (FUGENBIO CO., LTD., priority 2022, published 2025):

Tests used:
B16F10 cells = conditions: cited from earlier work
Ob/Ob mice = assay: antidiabetic effect in Ob/Ob mice; assay type: in vivo
Procedure: In order to confirm the antidiabetic effect of 5-PF-Q, the changes, due to the administration of 5-PF-Q, in body weight, food intake, reduction of blood sugar levels, toxicity, and insulin resistance were measured.
The mice were divided into group A (weight 35 g or more) and group B (weight 35 g or less) based on body weight. According to the flowchart below, each group was assigned to a metformin (200 mg/kg) administration group (positive control group) and a 5-PF-Q (15 mg/kg) administration group (experimental group) and administered orally for 3 weeks. After the 3-week administration period, blood sugar levels were measured by performing an oral glucose tolerance test (OGTT), and the mice were sacrificed 3 weeks thereafter. OGTT was also performed at the same time point for the Ob/Ob vehicle group (negative control group) that was not administered with the compound, and non-diabetic C57BL/6 mice, and they were sacrificed.

[1] = test system: AMP-activated protein kinase (AMPK); assay: AMPK expression in differentiated C2C12 cells; assay type: cell-based; conditions: C2C12, positive control 90 μg/mL
Procedure: In order to confirm the effect of 5-PF-Q on the expression of AMP-activated protein kinase (AMPK), differentiated muscle cell C2C12 cells were treated with 5-PF-Q at 10 μg/mL, 50 μg/mL, and 100 μg/mL for 24 hours, respectively, as shown in FIG. 7 (10% gel, 20 μg PTN, 1° ab pAMPK 1:3,000, tAMPK 1:1,000/2° ab 1:4,000).

Structure (SMILES)	cytotoxicity (B16F10 cells)	inhibition of melanin production IC50 (B16F10 cells) [µg/mL]	insulin resistance compared to Ob/Ob vehicle group (Ob/Ob mice; Ob/Ob mice, 200 mg/kg)	OGTT blood sugar reduction pattern (Ob/Ob mice; group A (35 g or more), 200 mg/kg oral for 3 weeks)	expression of AMPK (pAMPK/tAMPK) [1]
CCCCCc1ccc(C=O)o1 [5-pentyl-2-furaldehyde]	without cytotoxicity	8.4			
CN(C)C(=N)N=C(N)N [metformin]			tendency to improve insulin resistance	blood sugar reduction pattern was similar	clearly observed
